Results on 1 compound are retold here after patent publication US20240285555A1, “COMPOSITIONS FOR THE TREATMENT OF COPPER DEFICIENCY AND METHODS OF USE” (priority 2018, published 2024).

In one assay the test system is ccs1Δ cells. The assay can be described thus: Respiratory growth rescue of ccs1Δ yeast. The class given is cell-based, Saccharomyces cerevisiae. Conditions: non-fermentable media, 37° C. The procedure: (§1) Yeast Strains and Culture Conditions. The authenticity of yeast strains was confirmed by PCR as well as by replica plating on dropout plates. Yeast cells were cultured in standard YP growth media including YPD (1% yeast extract, 2% peptone and 2% glucose), YPGal (2% galactose), YPGE (3% glycerol+1% ethanol), or synthetic media (SC glucose). For qualitative growth measurement, 10-fold serial dilutions of overnight cultures were spotted on YPD or YPGE plates and incubated at 30° C. and 37° C. for the indicated period. Growth in liquid media was measured spectrophotometrically at 600 nm.
ES Rescues Many Different Yeast Mutants with Impaired Copper Metabolism. To test the specificity of ES mediated rescue, a number of yeast mutants of genes required for maintaining cellular and mitochondrial copper homeostasis were shortlisted. Genes were prioritized based on their evolutionary conservation, presence of pathogenic mutations in humans, and/or the existence of a related mouse phenotype (Table 3, shown below). […] Most of the yeast mutants were rescued with ES supplementation, albeit to different degrees, reflecting their distinct roles in cellular and mitochondrial copper homeostasis. […]

The test system of assay [1] is Ctr1^−/− H9c2 cardiomyocytes. The assay can be described thus: COX1 and SOD1 levels in Ctr1 knockout H9c2 cardiomyocytes (Western blot). Format: cell-based, rat. Conditions: 5 nM ES. The procedure:
FIGS. 4A and 4B illustrates the effects of ES supplementation in increasing copper levels (A) and cytochrome c oxidase subunit, COX1, and superoxide dismutase, SOD1 levels (B) in Ctrl1^−/− H9c2 rat cardiomyocytes. ATP5A is a subunit of mitochondrial ATP synthase and was used as a loading control for the Western blotting experiment.
Mammalian Cell Culture. The human control MCH46 and SCO2 patient fibroblasts as well as the rat H9c2 control and Ctr1^−/− cardiomyocytes were cultured in high glucose Dulbecco's modified Eagle's medium (DMEM) supplemented with 10% fetal bovine serum (Sigma) and 1 mM sodium pyruvate (Life Technologies). The mouse embryonic fibroblasts were cultured in DMEM 10% FBS, 1 mM sodium pyruvate, 1× minimum essential medium non-essential amino acids (MEM NEAA; Life Technologies 11140), 50 μg/mL uridine, and 1× Pen Strep Glutamine (Life Technologies 10378). All cell lines were cultured under 5% CO2 at 37° C. and were treated with indicated concentrations of ES for 3-6 days before harvesting. Whole cell protein was extracted in lysis buffer (BP-115, Boston BioProducts) supplemented with protease inhibitor cocktail (Roche Diagnostics) and the protein concentrations were determined by BCA assay (Thermo Scientific).
Construction of a Ctr1 Knockout Rat H9c2 Cell Line. […]
In general terms: In western blotting, separated proteins are transferred to a membrane and probed.

A further assay deals with sco1Δ cells. The assay can be described thus: Respiratory growth rescue of sco1Δ yeast. As to conditions: non-fermentable media, 37° C. Format: cell-based, Saccharomyces cerevisiae. The procedure: as §1
ES Rescues Many Different Yeast Mutants with Impaired Copper Metabolism. To test the specificity of ES mediated rescue, a number of yeast mutants of genes required for maintaining cellular and mitochondrial copper homeostasis were shortlisted. Genes were prioritized based on their evolutionary conservation, presence of pathogenic mutations in humans, and/or the existence of a related mouse phenotype (Table 3, shown below). […] Most of the yeast mutants were rescued with ES supplementation, albeit to different degrees, reflecting their distinct roles in cellular and mitochondrial copper homeostasis.

For assay [2], the system named is CcO-containing mitochondrial respiratory chain supercomplexes. The assay can be described thus: Assembly and activity of CcO-containing supercomplexes (native PAGE blotting, in-gel activity). Format: cell-based, Saccharomyces cerevisiae. Conditions: 20 nM ES, YP galactose medium. How it is done: FIGS. 2A, 2B, 2C, 2D and 2E illustrate elesclomol supplementation rescues CcO assembly defects by restoring mitochondrial copper levels of yeast S. cerevisiae coa6Δ cells. FIGS. 2A-2C illustrate bioenergetic parameters of wild type (WT), coa6Δ, and coa6Δ cells supplemented with 20 nM ES were cultured in YP galactose medium until early stationary growth phase. […] Error bars represent mean±SD (n=3, two-tailed unpaired Student's t-test *p<0.05, **p<0.005).
Immunoblotting and In-gel Activities. Sodium dodecyl sulfate polyacrylamide gel electrophoresis (SDS-PAGE) and Blue Native PAGE (BN-PAGE) were performed to separate denatured and native protein complexes, respectively. For SDS-PAGE, mitochondrial lysate ([…]) was separated on NuPAGE 4-12% Bis-Tris gels (Life Technologies, Carlsbad, CA). For BN-PAGE, yeast mitochondria were solubilized in buffer containing 1% digitonin (Life Technologies) by incubating for 15 min at 4° C. […]
A number of copper-binding pharmacological agents were tested for their ability to rescue respiratory deficient growth of coa6Δ cells. […] To determine the biochemical basis for the observed respiratory rescue of coa6Δ cells, the assembly and activity of CcO-containing mitochondrial respiratory chain supercomplexes was measured by native-polyacrylamide gel electrophoresis blotting and in-gel activity assay, respectively. […]

For `CN(NC(=O)CC(=O)NN(C)C(=S)c1ccccc1)C(=S)c1ccccc1` [ES, elesclomol], in the assay with ccs1Δ cells, the “rescue of the respiratory growth defect” value is “rescue”. Moreover, the “levels of COX1 and SOD1” value in assay [1] is “restores”. Also, in the assay with sco1Δ cells, the “rescue of respiratory growth” value is “failed to rescue”. For the same compound, in assay [2], the “abundance and activity of CcO-containing supercomplexes” value was “restored the abundance and activity of CcO-containing supercomplexes to near wild type levels”.
